Numbers after ± are expanded uncertainties.
Test: molar heat capacity at constant pressure; xn = mol fraction of the nth substance listed
Details: 101.3 kPa, Liquid, Small sample (50 mg) DSC

CCC(C)(C)O [2-methylbutan-2-ol] + CCCCCCC
Details	molar heat capacity at constant pressure [J/K/mol]
345.14 K, x1 = 0.0249	244.12 ± 3.8
345.14 K, x1 = 0.0494	246.22 ± 3.8
345.14 K, x1 = 0.1	253.28 ± 3.9
345.14 K, x1 = 0.1547	260.94 ± 4
345.14 K, x1 = 0.1999	266.5 ± 4.1
345.14 K, x1 = 0.2993	275.63 ± 4.3
345.14 K, x1 = 0.4051	282.19 ± 4.4
345.14 K, x1 = 0.4986	286.41 ± 4.4
345.14 K, x1 = 0.5981	289.46 ± 4.5
345.14 K, x1 = 0.7015	291.51 ± 4.5
345.14 K, x1 = 0.8023	291.94 ± 4.5
345.14 K, x1 = 0.9139	291.66 ± 4.5
345.14 K, x1 = 0.9609	290.76 ± 4.5
346.15 K, x1 = 0.0061	244.11 ± 3.8
346.15 K, x1 = 0.0249	244.51 ± 3.8
346.15 K, x1 = 0.0494	246.51 ± 3.8
346.15 K, x1 = 0.1	253.41 ± 3.9
346.15 K, x1 = 0.1547	261 ± 4
346.15 K, x1 = 0.1999	266.61 ± 4.1
346.15 K, x1 = 0.2993	275.72 ± 4.3
346.15 K, x1 = 0.4051	282.35 ± 4.4
346.15 K, x1 = 0.4986	286.63 ± 4.4
346.15 K, x1 = 0.5981	289.78 ± 4.5
346.15 K, x1 = 0.7015	291.88 ± 4.5
346.15 K, x1 = 0.8023	292.49 ± 4.5
346.15 K, x1 = 0.9139	292.09 ± 4.5
346.15 K, x1 = 0.9609	291.29 ± 4.5
347.13 K, x1 = 0.0494	246.82 ± 3.8
347.15 K, x1 = 0.9139	292.63 ± 4.5
347.16 K, x1 = 0.0061	244.48 ± 3.8
347.16 K, x1 = 0.0249	244.81 ± 3.8
347.16 K, x1 = 0.1	253.4 ± 3.9
347.16 K, x1 = 0.1547	261.01 ± 4
347.16 K, x1 = 0.1999	266.57 ± 4.1
347.16 K, x1 = 0.2993	275.89 ± 4.3
347.16 K, x1 = 0.4051	282.48 ± 4.4
347.16 K, x1 = 0.4986	286.83 ± 4.4
347.16 K, x1 = 0.5981	290.05 ± 4.5
347.16 K, x1 = 0.7015	292.26 ± 4.5
347.16 K, x1 = 0.8023	292.88 ± 4.5
347.16 K, x1 = 0.9609	291.82 ± 4.5
348.14 K, x1 = 0.0061	244.95 ± 3.8
348.14 K, x1 = 0.0249	245.23 ± 3.8
348.14 K, x1 = 0.0494	247.05 ± 3.8
348.14 K, x1 = 0.1	253.5 ± 3.9
348.14 K, x1 = 0.2993	275.95 ± 4.3
348.14 K, x1 = 0.4051	282.77 ± 4.4
348.14 K, x1 = 0.4986	287.07 ± 4.5
348.14 K, x1 = 0.5981	290.42 ± 4.5
348.14 K, x1 = 0.7015	292.68 ± 4.5
348.14 K, x1 = 0.8023	293.3 ± 4.5
348.14 K, x1 = 0.9139	293.11 ± 4.5
348.14 K, x1 = 0.9609	292.28 ± 4.5
348.16 K, x1 = 0.1547	261.02 ± 4
348.16 K, x1 = 0.1999	266.63 ± 4.1
349.15 K, x1 = 0.0061	245.31 ± 3.8
349.15 K, x1 = 0.0249	245.69 ± 3.8
349.15 K, x1 = 0.0494	247.42 ± 3.8
349.15 K, x1 = 0.1	253.6 ± 3.9
349.15 K, x1 = 0.1547	261.07 ± 4
349.15 K, x1 = 0.1999	266.66 ± 4.1
349.15 K, x1 = 0.2993	276.06 ± 4.3
349.15 K, x1 = 0.4051	282.91 ± 4.4
349.15 K, x1 = 0.4986	287.38 ± 4.5
349.15 K, x1 = 0.5981	290.79 ± 4.5
349.15 K, x1 = 0.7015	293.13 ± 4.5
349.15 K, x1 = 0.8023	293.78 ± 4.5
349.15 K, x1 = 0.9139	293.7 ± 4.5
349.15 K, x1 = 0.9609	292.9 ± 4.5
350.15 K, x1 = 0.0061	245.7 ± 3.8
350.15 K, x1 = 0.0494	247.73 ± 3.8
350.15 K, x1 = 0.1999	266.71 ± 4.1
350.15 K, x1 = 0.4986	287.48 ± 4.5
350.15 K, x1 = 0.5981	290.98 ± 4.5
350.15 K, x1 = 0.7015	293.35 ± 4.5
350.15 K, x1 = 0.8023	294.18 ± 4.6
350.15 K, x1 = 0.9139	294.04 ± 4.6
350.15 K, x1 = 0.9609	293.31 ± 4.5
350.16 K, x1 = 0.0249	245.9 ± 3.8
350.16 K, x1 = 0.1	253.7 ± 3.9
350.16 K, x1 = 0.1547	261.07 ± 4
350.16 K, x1 = 0.2993	276.06 ± 4.3
350.16 K, x1 = 0.4051	283.01 ± 4.4
351.14 K, x1 = 0.0061	246.16 ± 3.8
351.14 K, x1 = 0.0249	246.29 ± 3.8
351.14 K, x1 = 0.0494	247.89 ± 3.8
351.14 K, x1 = 0.1	253.68 ± 3.9
351.14 K, x1 = 0.1547	261.02 ± 4
351.14 K, x1 = 0.1999	266.6 ± 4.1
351.14 K, x1 = 0.4051	283 ± 4.4
351.14 K, x1 = 0.4986	287.61 ± 4.5
351.14 K, x1 = 0.5981	291.23 ± 4.5
351.14 K, x1 = 0.7015	293.67 ± 4.5
351.14 K, x1 = 0.8023	294.44 ± 4.6
351.14 K, x1 = 0.9139	294.48 ± 4.6
351.14 K, x1 = 0.9609	293.76 ± 4.5
351.16 K, x1 = 0.2993	276.1 ± 4.3
352.15 K, x1 = 0.0061	246.53 ± 3.8
352.15 K, x1 = 0.0249	246.7 ± 3.8
352.15 K, x1 = 0.0494	248.24 ± 3.9
352.15 K, x1 = 0.1	253.93 ± 3.9
352.15 K, x1 = 0.1547	261.06 ± 4
352.15 K, x1 = 0.1999	266.66 ± 4.1
352.15 K, x1 = 0.2993	276.22 ± 4.3
352.15 K, x1 = 0.4051	283.15 ± 4.4
352.15 K, x1 = 0.4986	287.82 ± 4.5
352.15 K, x1 = 0.5981	291.44 ± 4.5
352.15 K, x1 = 0.7015	293.88 ± 4.5
352.15 K, x1 = 0.8023	294.82 ± 4.6
352.15 K, x1 = 0.9139	294.82 ± 4.6
352.15 K, x1 = 0.9609	294.14 ± 4.6
353.15 K, x1 = 0.0061	246.79 ± 3.8
353.15 K, x1 = 0.0249	247.03 ± 3.8
353.15 K, x1 = 0.0494	248.53 ± 3.9
353.15 K, x1 = 0.1	253.91 ± 3.9
353.15 K, x1 = 0.1547	260.99 ± 4
353.15 K, x1 = 0.1999	266.57 ± 4.1
353.15 K, x1 = 0.2993	276.2 ± 4.3
353.15 K, x1 = 0.4051	283.18 ± 4.4
353.15 K, x1 = 0.4986	287.86 ± 4.5
353.15 K, x1 = 0.5981	291.63 ± 4.5
353.15 K, x1 = 0.7015	294.17 ± 4.6
353.15 K, x1 = 0.8023	295.16 ± 4.6
353.15 K, x1 = 0.9139	295.27 ± 4.6
353.15 K, x1 = 0.9609	294.55 ± 4.6
